Bounds are passed on as bounds.

In one data set the target is T1, NK3 receptor (Homo sapiens, UniProt P29371).
T1 sequence (P29371 1-465): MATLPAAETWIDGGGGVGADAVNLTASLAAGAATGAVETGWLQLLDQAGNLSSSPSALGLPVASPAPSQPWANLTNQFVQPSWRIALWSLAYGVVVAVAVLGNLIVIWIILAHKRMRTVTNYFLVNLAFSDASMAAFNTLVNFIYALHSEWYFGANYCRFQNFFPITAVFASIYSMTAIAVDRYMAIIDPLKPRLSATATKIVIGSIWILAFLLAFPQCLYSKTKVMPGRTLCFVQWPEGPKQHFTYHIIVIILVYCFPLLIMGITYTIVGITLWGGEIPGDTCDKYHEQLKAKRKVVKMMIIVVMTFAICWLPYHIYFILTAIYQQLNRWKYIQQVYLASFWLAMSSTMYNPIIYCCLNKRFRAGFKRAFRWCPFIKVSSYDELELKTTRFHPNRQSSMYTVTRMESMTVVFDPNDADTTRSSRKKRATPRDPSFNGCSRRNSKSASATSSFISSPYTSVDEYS
Nature of the data set: In vitro target engagement. The data set is classed as binding. The following applies: n=12.

The target in a further data set is NK1 (Homo sapiens, UniProt P25103). Nature of the data set: Specificity over other tachykinin receptors (NK1). The data set is classed as binding.
Chain of NK1 (P25103 whole entry): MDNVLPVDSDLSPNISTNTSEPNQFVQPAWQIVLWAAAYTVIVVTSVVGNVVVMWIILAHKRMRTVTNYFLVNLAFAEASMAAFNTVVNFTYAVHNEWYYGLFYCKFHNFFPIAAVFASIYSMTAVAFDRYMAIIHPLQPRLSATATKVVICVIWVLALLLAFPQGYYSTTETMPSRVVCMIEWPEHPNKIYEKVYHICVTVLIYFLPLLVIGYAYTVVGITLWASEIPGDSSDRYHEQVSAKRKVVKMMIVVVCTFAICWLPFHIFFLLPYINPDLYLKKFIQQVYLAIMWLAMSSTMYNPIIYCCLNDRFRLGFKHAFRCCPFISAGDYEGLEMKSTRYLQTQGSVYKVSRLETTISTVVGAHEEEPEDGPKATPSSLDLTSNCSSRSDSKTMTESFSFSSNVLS
A further data set concerns the target T2, NK2 (Homo sapiens, UniProt P21452).
T2 sequence (P21452 1-398): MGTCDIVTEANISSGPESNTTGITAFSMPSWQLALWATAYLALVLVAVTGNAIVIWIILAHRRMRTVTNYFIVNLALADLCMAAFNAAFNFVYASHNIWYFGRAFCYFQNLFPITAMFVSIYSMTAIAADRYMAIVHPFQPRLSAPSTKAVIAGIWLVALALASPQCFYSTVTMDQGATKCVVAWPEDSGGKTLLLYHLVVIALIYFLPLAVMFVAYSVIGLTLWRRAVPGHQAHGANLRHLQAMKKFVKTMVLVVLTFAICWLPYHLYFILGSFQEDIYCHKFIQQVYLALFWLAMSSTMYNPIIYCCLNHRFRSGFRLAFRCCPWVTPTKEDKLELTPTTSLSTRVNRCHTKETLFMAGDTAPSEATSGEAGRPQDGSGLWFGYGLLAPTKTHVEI
Nature of the data set: Specificity over other tachykinin receptors (NK2). The data set is classed as binding.

In the next data set the test system is mice. Nature of the data set: Neurobehavioral test battery in mice. The data set is classed as in vivo. The following applies: oral doses 100, 300 and 600 mg/kg. As to the method:
(§1) Safety pharmacology studies were carried out on NK3RA and included tests to investigate possible effects on the central nervous system (CNS), cardiovascular system, and respiratory system.

The next data set concerns rat. Nature of the data set: Modified rat Irwin test. The data set is classed as in vivo. The following applies: oral 46, 460 and 2022 mg/kg. As to the method: as §1
The subject of a further data set is dogs. Nature of the data set: Dog electrocardiographic (ECG) telemetry study. The data set is classed as in vivo.
In another data set the test system is rats. Nature of the data set: Respiratory parameters in rats. The settings on record: up to 2000 mg/kg (4400 μmol/kg). The data set is classed as in vivo, rat.
Data set [1] deals with LH, free and total testosterone. Nature of the data set: Phase 2a randomised double blind placebo controlled study in women with PCOS (interim data). The data set is classed as in vivo, human. Here is the method:
The pharmacodynamics, safety and pharmacokinetics of a compound of the present invention, NK3RA, is being further evaluated in a randomized, double-blind, placebo-controlled of NK3RA when given in multiple doses to females with PCOS.
In this type of clinical trial three doses of 20 mg once daily, 20 mg twice daily and 40 mg twice daily of test compound are being compared to placebo, and studied in parallel group design. […] Exploratory analyses will focus on changes from baseline of LH, DHEA, FSH, oestrogen, progesterone, prolactin, thyroid stimulating hormone, Insulin-like Growth Factor 1 [IGF-1] (as surrogate for GH) and HbA1c on days 7 and 28, as well as the impact of treatment on patient reported outcomes and HRQoL as measured by change from baseline at day 28.
The study population includes women with PCOS aged 18-45. The study will enroll 14 PCOS subjects per dose cohort with a total of N=56 for the entire study (2 drop outs per group assumed to give 12 evaluable subjects per dose). Patients are being dosed in the study over a duration of 28 days.
The effect of NK3RA on testosterone and LH is being assessed. […] LH pulse amplitude and frequency are mathematically modelled parameters from raw LH assay data.
Hourly measurement of FSH and free and total testosterone was performed during these periods of intensive monitoring.
Interim data have been obtained from a total of 20 women with Polycystic Ovary Syndrome (PCOS) who received treatment (NK3RA or placebo) in the ongoing phase 2a study. This study is a 28 day, randomised, double blind placebo controlled study with 4 treatment arms, NK3RA 20 mg once daily, 20 mg twice daily, 40 mg twice daily and placebo in women with PCOS.
Tables 1 to 3 below summarise the number of patients with data supportive, consistent and not supportive by treatment group (placebo and NK3RA).
In Table 1 the criteria used to determine what is supportive, consistent or not supportive are based on a qualitative evaluation of the changes in:
(a) LH area under the curve (AUC) between 0 and 8 hours AUC(0-8)
(b) LH pulsatility parameters derived through deconvolution (Veldhuis J D, Keenan D M, and Pincus S M. Motivations and methods for analyzing pulsatile hormone secretion. Endocrine Reviews. 2008, 29(7):823-864; and Liu P Y, Keenan D M, Kok P, Padmanabhan V, O'Byrne K T, and Veldhuis J D. Sensitivity and specificity of pulse detection using a new deconvolution method. Am J Physiol Endocrinol Metab. 2009; 297(2):538-44) • i) average mass per LH pulse in 8 hours • ii) total number of LH pulses in 8 hours.
For LH, there is a relationship between the LH AUC(0-8) and LH pulsatility. In particular, reductions in LH AUC(0-8) that would be considered to be disease modifying in PCOS will manifest themselves in pulsatility parameters of average mass per LH pulse in 8 hours and/or total number of LH pulses in 8 hours. Mass per pulse (MPP) is defined the amount of LH released per reconstructed LH pulse. The LH AUC(0-8) can be more reliably measured compared to the pulsatility parameters and therefore why both AUC(0-8) and pulsatility are considered in interpreting the level of LH reduction.
In Table 2 the criteria used to determine what is supportive, consistent or not supportive are based on a qualitative evaluation of the changes in average (on an individual patient basis) free testosterone.
In Table 3 the criteria used to determine what is supportive, consistent or not supportive are based on a qualitative evaluation of the changes in average (on an individual patient basis) total testosterone.
Expert judgement was necessary in the application of these criteria and therefore plots were evaluated independently by 3 AZ physicians. The most common result across the 3 physicians determined provided the overall evaluation for a single patient. These criteria were agreed between the 3 reviewers ahead of the plots being available for review. […]

The mark [2] stands for this setting: decrease vs baseline on both days 7 and 28.
[3] abbreviates: decrease vs baseline on either days 7 and 28.
Setting [4] is: increase vs baseline on both days 7 and 28.

The IC50 is the point on the concentration scale where inhibition reaches its midpoint. A lower IC50 goes with greater potency. In the case of `CC[C@H](NC(=O)c1c(NS(C)(=O)=O)c(-c2ccccc2)nc2ccccc12)c1ccccc1` [NK3RA, 3-(methanesulfonamido)-2-phenyl-N-[(1S)-1-phenylpropyl]quinoline-4-carboxamide], at NK3 receptor, half-maximal inhibition (IC50) required 2.24 ± 0.57 nM. In addition, the “specificity for NK3 over NK1” value at NK1 is on record as “greater than 1200 fold”. The “specificity for NK3 over NK2” value at NK2 was greater than 800 fold. In addition, in the data set on mice, the neurobehavioral effects result is “transient deficits in gait and spontaneous motor activity”; the “time to full recovery” value is no more than 24 h. Moreover, the “findings in modified Irwin test” value with rat is given as “no significant findings”. For the same molecule, in the data set on dogs, the “effect on blood pressure” value is “no effect” and the “other ECG parameters including QTc interval duration” value was “No other ECG parameter, including QTc interval duration, was affected”. The “reduction in heart rate” value in the data set with dogs (highest dose tested 2000 mg/kg orally, transient, dose-related) is on record as “up to 29%”. The respiratory parameters entry in the data set with rats was “did not affect any respiratory parameters”. Besides, in data set [1] (NK3RA arms pooled, LH AUC decreases on both days 7 and 28 AND MPP or number of pulses decrease), the “LH: No. of patients Supportive” value is listed as 2. For the same molecule, the “LH: No. of patients Consistent” value in data set [1] (NK3RA arms pooled, LH AUC decreases on both days 7 and 28 OR MPP or number of pulses decrease) amounted to 3. Besides, the “LH: No. of patients Non-supportive” value in data set [1] (NK3RA arms pooled, LH AUC, MPP and number of pulses increase on day 7 or 28) amounted to 3. Moreover, in data set [1] (setting [2]), the “Free testosterone: No. of patients Supportive” value is 2 and the “Total Testosterone: No. of patients Supportive” value came to 3. In data set [1] (setting [3]), the “Free testosterone: No. of patients Consistent” value came out at 4 and the “Total Testosterone: No. of patients Consistent” value amounted to 3. In addition, in data set [1] (setting [4]), the “Free testosterone: No. of patients Non-supportive” value is recorded as 3 and the “Total Testosterone: No. of patients Non-supportive” value was found to be 4.
